Results on 1 molecule are retold here after US9126999B2, “Tetrahydropyrazolopyrimidine compounds” (EISAI R&D MANAGEMENT CO., LTD., priority 2012, dated 2015).

The test has as its target T1, Human TLR9 (Homo sapiens, UniProt Q9NR96).
T1 sequence (Q9NR96 26-1032): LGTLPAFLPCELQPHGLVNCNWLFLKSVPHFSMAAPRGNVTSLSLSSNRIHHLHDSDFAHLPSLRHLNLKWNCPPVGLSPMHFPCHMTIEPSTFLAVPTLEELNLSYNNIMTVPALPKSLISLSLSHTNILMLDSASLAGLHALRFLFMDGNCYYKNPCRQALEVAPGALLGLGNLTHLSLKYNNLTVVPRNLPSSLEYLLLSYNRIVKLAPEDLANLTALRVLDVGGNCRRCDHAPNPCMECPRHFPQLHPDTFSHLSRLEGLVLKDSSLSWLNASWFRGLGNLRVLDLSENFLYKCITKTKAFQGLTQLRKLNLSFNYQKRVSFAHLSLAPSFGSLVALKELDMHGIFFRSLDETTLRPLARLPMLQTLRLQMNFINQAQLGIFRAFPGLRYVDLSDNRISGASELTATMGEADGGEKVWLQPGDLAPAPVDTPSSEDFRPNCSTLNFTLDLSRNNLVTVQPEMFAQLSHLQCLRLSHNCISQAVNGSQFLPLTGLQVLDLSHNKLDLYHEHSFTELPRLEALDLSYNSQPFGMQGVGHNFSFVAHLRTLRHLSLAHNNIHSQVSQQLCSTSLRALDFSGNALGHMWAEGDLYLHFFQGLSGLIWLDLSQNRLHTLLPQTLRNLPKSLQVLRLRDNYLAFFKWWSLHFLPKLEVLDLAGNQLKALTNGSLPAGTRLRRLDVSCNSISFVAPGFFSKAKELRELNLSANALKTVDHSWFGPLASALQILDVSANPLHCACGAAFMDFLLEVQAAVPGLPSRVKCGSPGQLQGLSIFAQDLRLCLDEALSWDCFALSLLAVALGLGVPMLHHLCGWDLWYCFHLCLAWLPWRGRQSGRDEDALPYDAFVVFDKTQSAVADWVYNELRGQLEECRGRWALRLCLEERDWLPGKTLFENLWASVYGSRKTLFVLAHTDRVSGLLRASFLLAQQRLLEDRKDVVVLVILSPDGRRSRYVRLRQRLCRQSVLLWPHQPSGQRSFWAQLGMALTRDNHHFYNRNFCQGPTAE
The test is described as follows: HEK-293 NF-kappaB luciferase reporter assay, CpG-ODN stimulus. The following applies: ligand CpG-ODN, analyte NFkB-luciferase. The test is classed as cell-based. Also on record: engineered to stably and individually express human TLR4, TLR7 or TLR9 full-length ORF cDNAs; expressed in transfected cells; host or cells: HEK-293 (ATCC) with ELAM-1 NF-kappaB luciferase reporter. The source says:
In vitro pharmacology: HEK-293 cells (ATCC) were engineered to stably express a NF-kappaB transcription factor inducible E-selectin (ELAM-1) luciferase reporter derived from the plasmid pGL3 (Promega) containing base pairs −2241 bp to −254 bp from the promoter of the human E-selectin gene (Accession No. NM_000450). These cells were then subsequently engineered to stably and individually express human TLR4, TLR7 or TLR9 full-length ORF cDNAs. Human TLR4 cDNA (Accession No. NM_138554) was cloned into pcDNA 3.0 expression vector (Invitrogen). TLR4 transfected cells were also engineered to express human MD-2 co-receptor [MD-2 cDNA (Accession No. NM_015364) was cloned into the pEF-BOS vector] and were supplemented with 10 nM soluble CD14 (R&D Systems) in the media to optimize LPS responsiveness. Human TLR9 cDNA (Accession No. NM_017442) was cloned into the pBluescript II KS vector (Agilent). Human TLR7 cDNA (Accession No. NM_016562) was obtained from OriGene. HEK-293 cells stably expressing human TLR8 (Accession No. NM_138636) or mouse TLR7 (Accession No. NM_133211) were purchased from InvivoGen and were then stably transfected with pNiFty2(NF-kappaB)-luciferase reporter plasmid (InvivoGen). […]

On to `COc1ccc([C@@H]2C[C@H](C(F)(F)F)n3nc(-c4ccc(C(=O)N5CCNCC5)cc4)cc3N2)cc1OC` [ER-892887, (4-((5S,7R)-5-(3,4-dimethoxyphenyl)-7-(trifluoromethyl)-4,5,6,7-tetrahydropyrazolo[1,5-a]pyrimidin-2-yl)phenyl)(piperazin-1-yl)methanone], for which the IC50 is greater than 10 µM.
